Literature values as cited in publication PMC7590008, “Slow Dissolution Kinetics of Model Peptide Fibrils” (International Journal of Molecular Sciences, 2020).
Structures can show the parent of a compound that is named as a salt.

Details: can be considered a strong acid
Text: First of all, for c<cs , the pH ≈6.3 is essentially the same as that of pure water (with some dissolved CO 2 ). This means that the A 8 K is a neutral salt and not a net acid or base. This implies that we can write the compound as PH ^+ TFA ^− , where P stands for the A 8 K peptide. The dry compound is a TFA salt, but with only one TFA counterion, because the carboxyl group is neutralized by one of the two ammonium groups ...

O=C(O)C(F)(F)F [TFA, Trifluoroacetate]
pK a: ≈ 1
